Among the test systems are UO-31 renal; EKVX NSCLC; SK-MEL-5 melanoma; HCC-2998 colon; NCI-H23 lung; MDA-MB-231 breast; HS 578T breast; OVCAR-4 ovarian; BT-549 breast.
Holding throughout (experiment): inhibition of tumour cell growth, NCI panel, 48 h

SMILES strings stand for the structures.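 Values below derive from 48-hour exposures of cells grown in 96-well plates, with endpoints linearly interpolated between the two concentrations bracketing the appropriate inhibition level. The concentration for 50% growth inhibition is given as GI50. The concentration for full growth arrest is given as TGI.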 Where only a bound is given, the exact number is not on record here.

As to `CCOC(=O)c1c(N2CCOCC2)[nH]c(=O)c(C(c2ccc(OC)cc2)c2c(O)c(C(=O)OCC)c(N3CCOCC3)[nH]c2=O)c1O`, the TGI with UO-31 renal, in the assay with EKVX NSCLC, with SK-MEL-5 melanoma, in the assay on HCC-2998 colon, with NCI-H23 lung and in the assay on MDA-MB-231 breast was above 100 µM in each case. Moreover, the TGI in the assay with HS 578T breast, in the assay with OVCAR-4 ovarian and in the assay with BT-549 breast was above 100 µM in each case.

Turning to `CCOC(=O)C1=C(C)NC(=S)NC1c1cccc(O)c1` (stereo unspecified), the TGI was above 100 µM with UO-31 renal; above 100 µM in the assay on EKVX NSCLC; above 100 µM in the assay on SK-MEL-5 melanoma; above 90.4 µM in the assay on HCC-2998 colon; above 100 µM in the assay with NCI-H23 lung; above 90 µM in the assay on MDA-MB-231 breast. In addition, the TGI with HS 578T breast, with OVCAR-4 ovarian and in the assay on BT-549 breast was above 100 µM in each case.

For the compound `CC1(C)[C@@H]2C[C@H]1c1cnc(-c3ccccn3)cc1C2[C@@H]1c2cc(-c3ccccn3)ncc2[C@@H]2C[C@H]1C2(C)C` (stereo partly specified), the TGI is 85.9 µM in the assay on UO-31 renal; above 100 µM in the assay with EKVX NSCLC; above 100 µM with SK-MEL-5 melanoma; above 100 µM in the assay on HCC-2998 colon; above 100 µM with NCI-H23 lung; above 100 µM in the assay with MDA-MB-231 breast. For the same compound, the TGI with HS 578T breast was above 100 µM; in the assay on OVCAR-4 ovarian, 85.3 µM; in the assay with BT-549 breast, above 100 µM.

Regarding `N#Cc1c2c(c(N3CCOCC3)n3c1nc1ccccc13)CCCC2`, the TGI with UO-31 renal amounted to 35.4 µM; in the assay on EKVX NSCLC it was 35.9 µM; in the assay on SK-MEL-5 melanoma it was 37 µM; in the assay with HCC-2998 colon it was 40.9 µM; in the assay on NCI-H23 lung, 47.3 µM; with MDA-MB-231 breast, 54.7 µM. Moreover, the figures for the TGI in the assay on HS 578T breast, with OVCAR-4 ovarian and in the assay on BT-549 breast were above 100 µM, 51.4 µM and above 100 µM, respectively.

Consider `C/C=C/[C@H]1O[C@@](OC)([C@@H](C)[C@H](O)[C@H](C)[C@H]2OC(=O)/C(OC)=C/C(C)=C/[C@@H](C)[C@@H](O)[C@@H](C)[C@@H](O)[C@H](C)C/C(C)=C/C=C/[C@@H]2OC)CC(OC2CC(O)C(OC(N)=O)C(C)O2)[C@@H]1C` (stereo partly specified), for which the TGI in the assay on UO-31 renal was below 0.01 µM; with EKVX NSCLC, 12.8 µM; with SK-MEL-5 melanoma, below 0.0433 µM; in the assay on HCC-2998 colon, 13.3 µM; in the assay on NCI-H23 lung, 21.7 µM; in the assay with MDA-MB-231 breast, 12.7 µM. Also, the TGI with HS 578T breast amounted to 17.9 µM; in the assay with OVCAR-4 ovarian, 18.3 µM; in the assay on BT-549 breast it was 17.6 µM.

In the case of `O=C(Nc1cccc(-c2cn3ccccc3n2)c1)c1ccncc1`, the TGI with UO-31 renal was above 100 µM; with EKVX NSCLC, above 100 µM; in the assay on SK-MEL-5 melanoma, 71.4 µM; in the assay on HCC-2998 colon, above 100 µM; in the assay on NCI-H23 lung, 65 µM; in the assay with MDA-MB-231 breast it was 98.7 µM. Also, the TGI in the assay with HS 578T breast was above 100 µM; with OVCAR-4 ovarian, above 100 µM; with BT-549 breast it was 72 µM.

For the compound `CCCCN(c1ccccc1)c1ncnc2c1cnn2C`, the TGI in the assay on UO-31 renal, with EKVX NSCLC, with SK-MEL-5 melanoma, in the assay on HCC-2998 colon, in the assay on NCI-H23 lung and in the assay on MDA-MB-231 breast was above 100 µM throughout. The TGI in the assay with HS 578T breast was 76.4 µM; in the assay with OVCAR-4 ovarian it was above 100 µM; in the assay with BT-549 breast it was 62.1 µM.

With `CN1C2CC(=O)CC1[C@@H]1OC(c3ccccc3)O[C@H]21` (stereo partly specified), the TGI with UO-31 renal, in the assay on EKVX NSCLC, with SK-MEL-5 melanoma, in the assay on HCC-2998 colon, in the assay on NCI-H23 lung and in the assay on MDA-MB-231 breast was above 100 µM each time. The TGI in the assay on HS 578T breast, with OVCAR-4 ovarian and with BT-549 breast was above 100 µM in each case.

Regarding `Cc1ccc2c(c1)OC1Nc3ccccc3C1=C2O` (stereo unspecified), the TGI in the assay on UO-31 renal was 61.6 µM; in the assay with EKVX NSCLC, 86.9 µM; in the assay on SK-MEL-5 melanoma, 34 µM; with HCC-2998 colon, 33.9 µM; with NCI-H23 lung, 74.6 µM; in the assay on MDA-MB-231 breast, 69.4 µM. The TGI in the assay with HS 578T breast is above 100 µM; in the assay with OVCAR-4 ovarian, above 100 µM; in the assay on BT-549 breast, 66.1 µM.

On to `N#CCc1nc(C#N)c(N)o1`, for which the TGI in the assay on UO-31 renal, with EKVX NSCLC, in the assay with SK-MEL-5 melanoma, with HCC-2998 colon, in the assay on NCI-H23 lung and with MDA-MB-231 breast was above 100 µM throughout. In addition, the TGI in the assay on HS 578T breast, in the assay on OVCAR-4 ovarian and in the assay on BT-549 breast was above 100 µM throughout. Further, the GI50 with EKVX NSCLC and with SK-MEL-5 melanoma was above 100 µM each time.

Consider `CCCCCCCCCCCCCCCCNc1nc(=O)n(C2CC(O)C(CO)O2)cc1F` (stereo unspecified), for which the TGI in the assay with UO-31 renal was 18.8 µM; with EKVX NSCLC it was 30.9 µM; in the assay with SK-MEL-5 melanoma it was 48.1 µM; in the assay with HCC-2998 colon, 14.2 µM; with NCI-H23 lung, 18 µM; in the assay on MDA-MB-231 breast it was 43.3 µM. In addition, the TGI in the assay on HS 578T breast is 38.7 µM; in the assay with OVCAR-4 ovarian, 40.4 µM; in the assay with BT-549 breast, 32.4 µM.

Values taken from PubChem BioAssay (NCI).
